Experimental data: patent US20170348258A1, “3-Amino Benzamide Derivative Serving As B-Lactam Auxiliary Antibiotic, Preparation Method and Use Thereof” (THE HONG KONG POLYTECHNIC UNIVERSITY, priority 2014, published 2017)
In brackets after ≈: the same amount, converted by molar mass.

What was measured:
MRSA strain 231 = assay: FICI of F332 with antibiotics; type: cell-based, S. aureus
MRSA strain 2728 = assay: FICI of F332 with antibiotics; type: cell-based, S. aureus
MRSA strain 254 = assay: FICI of F332 with antibiotics; type: cell-based, S. aureus
S. aureus 29213 = assay: Antibacterial susceptibility test (MIC, microbroth dilution); type: cell-based; conditions: Staphylococcus aureus, 29213; 18 hours at 37° C., >90% inhibition of bacterial growth
MRSA strain 2224 = assay: FICI of F332 with antibiotics; type: cell-based, S. aureus
MRSA strain 417 = assay: FICI of F332 with antibiotics; type: cell-based, S. aureus
MRSA strain 3589 = assay: FICI of F332 with antibiotics; type: cell-based, S. aureus
MRSA strain 256 = assay: FICI of F332 with antibiotics; type: cell-based, S. aureus
[1] = system: MRSA strain #1749 (ATCC strain); assay: FICI of F332 with antibiotics; type: cell-based, S. aureus
MRSA strain 2516 = assay: FICI of F332 with antibiotics; type: cell-based, S. aureus
MRSA strain 1344 = assay: FICI of F332 with antibiotics; type: cell-based, S. aureus
MRSA strain 2895 = assay: FICI of F332 with antibiotics; type: cell-based, S. aureus

SMILES: CCCCCCCCCNc1ccc(F)c(C(N)=O)c1F [Compound F332, 2,6-difluoro-3-(nonylamino)benzamide]
- FICI of F332 combined with Amoxicillin (MRSA strain 231): 0.52
- FICI of F332 combined with Cefuroxime (MRSA strain 231): 0.50
- FICI of F332 combined with Cloxacillin (MRSA strain 231): 0.28
- FICI of F332 combined with Meropenem (MRSA strain 231): 0.63
- FICI of F332 combined with Meticillin (MRSA strain 231): 0.50
- FICI of F332 combined with Amoxicillin (MRSA strain 2728): 0.08
- FICI of F332 combined with Cefuroxime (MRSA strain 2728): 0.14
- FICI of F332 combined with Cloxacillin (MRSA strain 2728): 1.01
- FICI of F332 combined with Meropenem (MRSA strain 2728): 2.03
- FICI of F332 combined with Meticillin (MRSA strain 2728): 0.16
- FICI of F332 combined with Amoxicillin (MRSA strain 254): 0.56
- FICI of F332 combined with Cefuroxime (MRSA strain 254): 0.25
- FICI of F332 combined with Cloxacillin (MRSA strain 254): 0.19
- FICI of F332 combined with Meropenem (MRSA strain 254): 1.50
- FICI of F332 combined with Meticillin (MRSA strain 254): 0.25
- MIC (S. aureus 29213): 12.5 µM (≈ 3.73 µg/mL)
- FICI of F332 combined with Amoxicillin (MRSA strain 2224): 0.19
- FICI of F332 combined with Cefuroxime (MRSA strain 2224): 0.25
- FICI of F332 combined with Cloxacillin (MRSA strain 2224): 0.25
- FICI of F332 combined with Meropenem (MRSA strain 2224): 4.01
- FICI of F332 combined with Meticillin (MRSA strain 2224): 0.13
- FICI of F332 combined with Amoxicillin (MRSA strain 417): 0.27
- FICI of F332 combined with Cefuroxime (MRSA strain 417): 0.06
- FICI of F332 combined with Cloxacillin (MRSA strain 417): 0.09
- FICI of F332 combined with Meropenem (MRSA strain 417): 0.19
- FICI of F332 combined with Meticillin (MRSA strain 417): 0.06
- FICI of F332 combined with Amoxicillin (MRSA strain 3589): 1.06
- FICI of F332 combined with Cefuroxime (MRSA strain 3589): 0.25
- FICI of F332 combined with Cloxacillin (MRSA strain 3589): 0.31
- FICI of F332 combined with Meropenem (MRSA strain 3589): 1.50
- FICI of F332 combined with Meticillin (MRSA strain 3589): 0.52
- FICI of F332 combined with Amoxicillin (MRSA strain 256): 0.08
- FICI of F332 combined with Cefuroxime (MRSA strain 256): 0.01
- FICI of F332 combined with Cloxacillin (MRSA strain 256): 0.13
- FICI of F332 combined with Meropenem (MRSA strain 256): 4.01
- FICI of F332 combined with Meticillin (MRSA strain 256): 0.04
- FICI of F332 combined with Amoxicillin [1]: 1.03
- FICI of F332 combined with Cefuroxime [1]: 1.13
- FICI of F332 combined with Cloxacillin [1]: 1.25
- FICI of F332 combined with Meropenem [1]: 10.0
- FICI of F332 combined with Meticillin [1]: 1.06
- FICI of F332 combined with Amoxicillin (MRSA strain 2516): 0.38
- FICI of F332 combined with Cefuroxime (MRSA strain 2516): 0.07
- FICI of F332 combined with Cloxacillin (MRSA strain 2516): 0.19
- FICI of F332 combined with Meropenem (MRSA strain 2516): 0.38
- FICI of F332 combined with Meticillin (MRSA strain 2516): 0.19
- FICI of F332 combined with Amoxicillin (MRSA strain 1344): 1.13
- FICI of F332 combined with Cefuroxime (MRSA strain 1344): 0.27
- FICI of F332 combined with Cloxacillin (MRSA strain 1344): 0.13
- FICI of F332 combined with Meropenem (MRSA strain 1344): 2.00
- FICI of F332 combined with Meticillin (MRSA strain 1344): 0.27
- FICI of F332 combined with Amoxicillin (MRSA strain 2895): 1.06
- FICI of F332 combined with Cefuroxime (MRSA strain 2895): 0.31
- FICI of F332 combined with Cloxacillin (MRSA strain 2895): 0.38
- FICI of F332 combined with Meropenem (MRSA strain 2895): 2.13
- FICI of F332 combined with Meticillin (MRSA strain 2895): 0.31

SMILES: CCCCCCCCCN(C)c1ccc(F)c(C(N)=O)c1F [Compound F361, 2,6-difluoro-3-(methyl(nonyl)amino)benzamide]
- MIC (S. aureus 29213): 3.13 µM (≈ 0.978 µg/mL)
